From patent EP4631940A1, “COMPOUND TARGETING PAN-KRAS PROTEIN DEGRADATION AGENT AND USE THEREOF” (Betta Pharmaceuticals Co., Ltd., priority 2022, dated 2024)
Read-outs that look alike come from different tables or passages of the source.

What was measured:
KRAS G12D [1] = molecular target: T1, KRAS G12D (Homo sapiens, UniProt P01116, G12D)
[2] = PK study in ICR mice (plasma); type: in vivo; details: Female ICR mice, IV 1 mg/kg; for AUC(0-t) / C0 / half-life: mouse
Protocol: Example 9 PK Study of Compound in ICR Mice (plasma)
(§1) The compound was mixed with the vehicle (10% DMSO / 5% Solutol HS 15 / 85% saline), vortexed, and sonicated to prepare a clear solution at 0.2 mg/mL. Female ICR mice aged 6 to 7 weeks (non-fasted) were intravenously administered the compound. Plasma was collected at specified time points. Drug concentration was analyzed by LC-MS/MS, and pharmacokinetic parameters were calculated using Phoenix WinNonlin software (Pharsight Corporation, USA). Table 12 Mouse PK Data for Intravenous Compound Monotherapy

KRAS G12D [3] = molecular target: T1, KRAS G12D; experiment: cell-based; details: AGS
in vitro [4] = details: dog, microsomes
in vitro [5] = details: human, microsomes
in vitro [6] = details: mouse, microsomes
AGS = experiment: Cell proliferation experiment (CellTiter-Glo); type: cell-based; details: Homo sapiens, AGS, 96 h, read-out: IC50(nM) AGS
H358 = experiment: Cell proliferation experiment (CellTiter-Glo); type: cell-based; details: Homo sapiens, NCI-H358; H358, KRAS mutation type G12C; 96 h incubation
SW620 = experiment: Cell proliferation experiment (CellTiter-Glo); type: cell-based; details: Homo sapiens, SW-620, 96 h, read-out: IC50(nM) SW620
[7] = not given; remark: listed apart in the source
in vitro [8] = details: rat, microsomes
[9] = PK study in Balbc mice (whole blood); type: in vivo; details: Female Balbc mice, IV 1 mg/kg
Protocol: Example 7 PK Study of Compound 2 in Balbc Mice
as §1, with “Compound 2” for “The compound”, “Balbc” for “ICR”, “Compound 2. Whole blood” for “the compound. Plasma”, “10” for “12”, “Compound 2” for “Compound”

KRAS G12D [10] = molecular target: T1, KRAS G12D; experiment: Western blot study of KRAS degradation in AGS cells; type: cell-based; design: endogenous in cells; host or cells: AGS; details: 3 h incubation
KRAS G12V = molecular target: T2, KRAS G12V (Homo sapiens, UniProt P01116, G12V); experiment: Western blot study of KRAS degradation in SW620 cells; type: cell-based; details: 3 h incubation
T2 construct: endogenous in cells; host or cells: SW620
T2 sequence (P01116 1-188 isoform P01116-2 G12V): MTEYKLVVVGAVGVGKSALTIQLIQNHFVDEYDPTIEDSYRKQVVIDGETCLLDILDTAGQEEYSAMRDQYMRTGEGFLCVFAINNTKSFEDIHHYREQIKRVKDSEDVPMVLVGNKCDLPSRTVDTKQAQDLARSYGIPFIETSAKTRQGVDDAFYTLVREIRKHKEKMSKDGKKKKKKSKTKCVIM

H1975 = experiment: Cell proliferation experiment (CellTiter-Glo); type: cell-based; details: Homo sapiens, NCI-H1975; H1975, KRAS WT; 96 h incubation
KRAS G13D = molecular target: T3, KRAS G13D (Homo sapiens, UniProt P01116, G13D); experiment: Western blot study of KRAS degradation in HCT116 cells; type: cell-based; details: 3 h incubation
T3 construct: endogenous in cells; host or cells: HCT116
T3 sequence (P01116 1-188 isoform P01116-2 G13D): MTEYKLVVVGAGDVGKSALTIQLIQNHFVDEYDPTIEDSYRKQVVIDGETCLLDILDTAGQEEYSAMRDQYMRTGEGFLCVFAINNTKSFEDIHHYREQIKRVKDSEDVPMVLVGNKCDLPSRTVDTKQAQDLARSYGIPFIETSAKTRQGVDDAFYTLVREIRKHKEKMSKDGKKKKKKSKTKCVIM

PK59 = experiment: Cell proliferation experiment (CellTiter-Glo); type: cell-based; details: PK-59; PK59, KRAS mutation type G12D; 96 h incubation
[11] = PK study in Beagle dogs (plasma); type: in vivo; details: IV 1 mg/kg
Protocol: Example 10 PK Study of Compound 135 in Beagle Dogs
as §1, with “Compound 135” for “The compound”, “0.5” for “0.2”, “Beagle dogs weighing approximately 10 kg (equal number of males and females, non-fasted)” for “Female ICR mice aged 6 to 7 weeks (non-fasted)”, “13 Beagle Dog” for “12 Mouse”

HCT116 = experiment: Cell proliferation experiment (CellTiter-Glo); type: cell-based; details: Homo sapiens, HCT-116; HCT116, KRAS mutation type G13D; 96 h incubation
PK-59 cells = experiment: Anti-tumor effects in a human pancreatic cancer xenograft model carrying KRAS^G12D mutation; type: in vivo, BALB/c Nude Crlj mice; details: QW, tail vein, PK-59 xenograft

T1 sequence (P01116 1-188 isoform P01116-2 G12D): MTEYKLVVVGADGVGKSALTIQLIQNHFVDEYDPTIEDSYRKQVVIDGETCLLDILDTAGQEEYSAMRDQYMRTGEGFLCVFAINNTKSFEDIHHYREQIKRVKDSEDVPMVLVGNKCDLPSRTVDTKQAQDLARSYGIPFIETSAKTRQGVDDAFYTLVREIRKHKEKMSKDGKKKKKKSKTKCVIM

Structure (SMILES) | DC50 (KRAS G12D [1]) [nM] | Cl_obs [2] [mL/min/kg] | Vss_obs [2] [L/kg] | AUC(0-t) [2] [ng·h/mL] | C0 [2] [ng/mL] | half-life [2] [h] | Dmax (KRAS G12D [3]) [%] | microsomal CLint (in vitro [4]) [µL/min/mg] | microsomal CLint (in vitro [5]) [µL/min/mg] | microsomal CLint (in vitro [6]) [µL/min/mg] | IC50 (AGS) [nM] | IC50 (H358) [nM] | IC50 (SW620) [nM] | microsomal CLint (in vitro [8]) [µL/min/mg] | other results
CCc1c(F)ccc2cc(O)cc(-c3ncc4c(N5CCC[C@@](C)(O)C5)nc(OCC5(CN6CCN(c7ccc(-c8cn([C@H](C(=O)N9C[C@H](O)C[C@H]9C(=O)N[C@@H](C)c9ccc(-c%10scnc%10C)cc9)C(C)C)nn8)cn7)CC6)CC5)nc4c3F)c12 [Compound 142] | 6.3 | 7.32 | 0.854 | 2300 | 9460 | 4.1 | 95 | 14.2 | 11.1 | 17.7 | 10 | – | – | – | The in vitro intrinsic clearance in liver microsomes (CLint, in vitro, µL/min/mg protein) Rat: 0.0 µL/min/mg protein
CCc1c(F)ccc2cc(O)cc(-c3ncc4c(N5CCCC(C)(O)C5)nc(OC[C@]56CCCN5[C@@H](COC(=O)N5CCC7(CC5)CC(C(=O)N[C@H](C(=O)N5C[C@H](O)C[C@H]5C(=O)N[C@@H](C)c5ccc(-c8scnc8C)cc5)C(C)(C)C)C7)CC6)nc4c3F)c12 (stereo partly drawn) [Compound 2, ((3R,7aR)-7a-(((7-(8-ethyl-7-fluoro-3-hydroxynaphthalen-1-yl)-8-fluoro-4-(3-hydroxy-3-methylpiperidin-1-yl)pyrido[4,3-d]pyrimidin-2-yl)oxy)methyl)hexahydro-1H-pyrrolizin-3-yl)methyl 2-(((S)-1-((2S,4R)-4-hydroxy-2-(((S)-1-(4-(4-methylthiazol-5-yl)phenyl)ethyl)carbamoyl)pyrrolidin-1-yl)-3,3-dimethyl-1-oxobutan-2-yl)carbamoyl)-7-azaspiro[3.5]nonane-7-carboxylate] | – | – | – | – | – | – | 95 | – | 31 | 16.6 | 44 | 143 | 501 | 11.6 | DC50 (KRAS G12D [1]; AGS cell line, In Cell Western Blotting, KRAS^G12D vs GAPDH): 316 nM; The in vitro intrinsic clearance in liver microsomes (CLint, in vitro, µL/min/mg protein) Dog [7]: 0.0 µL/min/mg protein; Cl_obs [9]: 3.77 mL/min/kg; Vss_obs [9]: 0.586 L/kg; AUC(0-t) ([9]; mouse): 4380 ng·h/mL; C0 ([9]; mouse): 8790 ng/mL; half-life ([9]; mouse): 6.49 h
CCc1c(F)ccc2cc(O)cc(-c3ncc4c(N5CCC[C@@](C)(O)C5)nc(OCC5(CN6CCC(Oc7cnc(-c8cn([C@H](C(=O)N9C[C@H](O)C[C@H]9C(=O)N[C@@H](C)c9ccc(-c%10scnc%10C)cc9)C(C)C)nn8)cn7)CC6)CC5)nc4c3F)c12 [Compound 144] | 1.1 | 5.81 | 1.54 | 2730 | 5530 | 9.34 | 95 | 7.4 | 18.8 | 10.9 | 3 | 5 | 8.4 | 6.2 | KRAS G12D protein degradation (Western blot, Fig. 5) (KRAS G12D [10]): effectively degraded; KRAS G12V protein degradation (Western blot, Fig. 5) (KRAS G12V): effectively degraded; IC50 (H1975): > 10000 nM; KRAS G13D protein degradation (Western blot, Fig. 5) (KRAS G13D): effectively degraded; IC50 (PK59): 4.4 nM; Cl_obs [11]: 6.19 mL/min/kg; Vss_obs [11]: 3.46 L/kg; AUC(0-t) ([11]; dog): 2520 ng·h/mL; C0 ([11]; dog): 9890 ng/mL; half-life ([11]; dog): 20.5 h; IC50 (HCT116): 13 nM; TGI After 4 Weeks of Administration (%) (PK-59 cells; 1 mg/kg): 82%; TGI After 4 Weeks of Administration (%) (PK-59 cells; 3 mg/kg): 93%; TGI After 4 Weeks of Administration (%) (PK-59 cells; 10 mg/kg): 113%
